Experimental findings from ChEMBL document CHEMBL1136645, “The identification of clinical candidate SB-480848: a potent inhibitor of lipoprotein-associated phospholipase A2” (Bioorg Med Chem Lett, 2003) are described below.

The target of series [1] is Cytochrome P450 2D6 (Homo sapiens, UniProt P10635). Kind of series: Inhibitory activity against Cytochrome P450 2D6. Type of series: ADME.
Series [2] deals with T1, Platelet-activating factor acetylhydrolase (Homo sapiens, UniProt Q13093).
T1 sequence (Q13093 whole entry): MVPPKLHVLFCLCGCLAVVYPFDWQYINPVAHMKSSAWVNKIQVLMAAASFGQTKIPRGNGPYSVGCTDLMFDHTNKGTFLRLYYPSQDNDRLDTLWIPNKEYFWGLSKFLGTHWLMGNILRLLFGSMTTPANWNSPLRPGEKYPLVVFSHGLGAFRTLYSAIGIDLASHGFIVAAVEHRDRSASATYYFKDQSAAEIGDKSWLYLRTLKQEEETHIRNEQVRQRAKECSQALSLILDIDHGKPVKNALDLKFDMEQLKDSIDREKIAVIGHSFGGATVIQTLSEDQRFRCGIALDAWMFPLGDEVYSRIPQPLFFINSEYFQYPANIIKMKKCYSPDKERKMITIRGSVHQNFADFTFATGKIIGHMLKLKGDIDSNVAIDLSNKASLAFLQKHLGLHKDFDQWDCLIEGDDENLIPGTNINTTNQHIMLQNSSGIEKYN
Put plainly: Inhibitory activity against recombinant human Lp-PLA2.

Series [3] can be described thus: Permeability was determined. In kind it is ADME. To be noted: not told; read-out: Permeability (converted).
Series [4] has as its target Cytochrome P450 3A4 (Homo sapiens, UniProt P08684). Put plainly: Inhibitory activity against CYP450 3A4 isozyme. Type of series: ADME.
Series [5] in a line: Permeability in plasma. Type of series: ADME, cell-free. To be noted: not told; read-out: Permeability (converted).
The nature of series [6]: Oral bioavailability in fed rat. Type of series: ADME, organism-based. The following applies: in vivo.
Series [7] is described as follows: Oral bioavailability in fasted rat. Type of series: ADME, organism-based. The following applies: in vivo.
The species entered for series [8] is Homo sapiens. Kind of series: Inhibitory concentration against lyso-PtdCho production in human LDL.
A short description of series [9]: Oral bioavailability in dog. The following applies: in vivo. Type of series: ADME, organism-based, Canis lupus familiaris.
The species named for series [10] is Homo sapiens. Kind of series: Inhibitory concentration against monocyte chemotaxis.

Chain of Cytochrome P450 2D6 (P10635 whole entry): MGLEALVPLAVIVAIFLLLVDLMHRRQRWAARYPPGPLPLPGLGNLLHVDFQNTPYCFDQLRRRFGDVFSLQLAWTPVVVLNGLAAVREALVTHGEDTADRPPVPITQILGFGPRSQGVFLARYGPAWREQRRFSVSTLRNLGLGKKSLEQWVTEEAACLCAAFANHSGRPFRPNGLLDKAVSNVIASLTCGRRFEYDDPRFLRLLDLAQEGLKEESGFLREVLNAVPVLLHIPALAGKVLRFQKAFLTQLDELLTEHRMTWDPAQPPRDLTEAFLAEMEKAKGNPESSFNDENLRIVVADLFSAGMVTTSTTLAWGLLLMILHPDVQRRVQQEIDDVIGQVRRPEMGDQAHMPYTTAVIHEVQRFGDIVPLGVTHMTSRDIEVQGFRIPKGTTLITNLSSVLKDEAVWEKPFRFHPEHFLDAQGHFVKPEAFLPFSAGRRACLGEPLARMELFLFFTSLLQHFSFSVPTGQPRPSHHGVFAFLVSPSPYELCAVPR
Chain of Cytochrome P450 3A4 (P08684 whole entry): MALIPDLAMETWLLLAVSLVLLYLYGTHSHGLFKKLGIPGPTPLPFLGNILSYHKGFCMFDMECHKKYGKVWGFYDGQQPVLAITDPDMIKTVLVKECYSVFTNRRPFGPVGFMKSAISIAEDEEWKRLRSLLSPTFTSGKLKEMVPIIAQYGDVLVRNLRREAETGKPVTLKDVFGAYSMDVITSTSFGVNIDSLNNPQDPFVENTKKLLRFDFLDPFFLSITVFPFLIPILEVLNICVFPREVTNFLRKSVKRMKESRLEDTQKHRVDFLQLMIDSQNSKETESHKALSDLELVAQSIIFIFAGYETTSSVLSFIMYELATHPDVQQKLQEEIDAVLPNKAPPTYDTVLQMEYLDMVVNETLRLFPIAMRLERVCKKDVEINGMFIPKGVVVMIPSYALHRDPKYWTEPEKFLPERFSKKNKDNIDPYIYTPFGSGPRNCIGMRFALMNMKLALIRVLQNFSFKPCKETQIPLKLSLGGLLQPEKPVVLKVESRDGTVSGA

`CCN(CC)CCN(Cc1ccc(-c2ccc(C(F)(F)F)cc2)cc1)C(=O)Cn1cc(Br)c(=O)nc1SCc1ccc(F)cc1`: the figures for the IC50 in series [1], in series [2] and in [4] were 56 µM, 0.001 µM and 39 µM, respectively. Moreover, in series [3], the Papp was 25 ×10⁻⁶ cm/s.
As for `CCN(CC)CCN(Cc1ccc(-c2ccc(C(F)(F)F)cc2)cc1)C(=O)Cn1cc(CCNS(C)(=O)=O)c(=O)nc1SCc1ccc(F)cc1`, in series [2], the IC50 is 0.001 µM. Besides, in [5], the Papp was 1.39 ×10⁻⁶ cm/s.
Regarding `CCN(CC)CCN(Cc1ccc(-c2ccc(Cl)cc2)cc1)C(=O)Cn1cc(C)c(=O)nc1SCc1ccc(F)cc1`, the figures for the IC50 in series [1] and in series [4] were 15 µM and 13 µM, respectively. The Papp in series [3] is 27.8 ×10⁻⁶ cm/s.
On to `CCN(CC)CCN(Cc1ccc(-c2ccc(C(F)(F)F)cc2)cc1)C(=O)Cn1c(SCc2ccc(F)cc2)nc(=O)c2c1CCCC2`, for which the values for the concentration for half-maximal inhibition (IC50) in series [1], in [2] and in series [4] were 9 µM, 0.0001 µM and 10 µM, respectively. For the same compound, the Papp in series [5] is 16.7 ×10⁻⁶ cm/s.
`CCN(CC)CCN(Cc1ccc(-c2ccc(Cl)cc2)cc1)C(=O)Cn1c(SCc2ccc(F)cc2)nc(=O)c2c1CCCC2`: the IC50 in [1] is 6 µM; in [2], 0.00025 µM; in series [4], 5 µM.
Take `CCN(CC)CCN(Cc1ccc(-c2ccc(C(F)(F)F)cc2)cc1)C(=O)Cn1cc(CCO)c(=O)nc1SCc1ccc(F)cc1`: in [3], the Papp was 0.833 ×10⁻⁶ cm/s.
Turning to `CCN(CC)CCN(Cc1ccc(-c2ccc(C(F)(F)F)cc2)cc1)C(=O)Cn1cc(C)c(=O)nc1SCc1ccc(F)cc1`, the IC50 was found to be 39 µM in series [1], 0.001 µM in series [2] and 17 µM in [4]. Moreover, the Papp in [3] was 22.2 ×10⁻⁶ cm/s.
The like results for `CCN(CC)CCN(Cc1ccc(-c2ccc(C(F)(F)F)cc2)cc1)C(=O)Cn1cc(SC)c(=O)nc1SCc1ccc(F)cc1` were, in that order, 39 µM, 0.0008 µM, 15 µM and 8.33 ×10⁻⁶ cm/s.
Turning to `CCc1cn(CC(=O)N(CCN(CC)CC)Cc2ccc(-c3ccc(C(F)(F)F)cc3)cc2)c(SCc2ccc(F)cc2)nc1=O`, the half-inhibitory concentration (IC50) in [1] came to 24 µM; in series [2] it was 0.0004 µM; in series [4] it was 11 µM. For the same compound, the Papp in series [3] was 27.8 ×10⁻⁶ cm/s.
As for `CCN(CC)CCN(Cc1ccc(-c2ccc(C(F)(F)F)cc2)cc1)C(=O)Cn1cc(OC)c(=O)nc1SCc1ccc(F)cc1`, the Papp in series [3] is 6.94 ×10⁻⁶ cm/s.
With `CCN(CC)CCN(Cc1ccc(-c2ccc(C(F)(F)F)cc2)cc1)C(=O)Cn1cc(CCN)c(=O)nc1SCc1ccc(F)cc1`, the IC50 in [2] was found to be 0.038 µM.
Turning to `CCN(CC)CCN(Cc1ccc(-c2ccc(C(F)(F)F)cc2)cc1)C(=O)Cn1cc(CCNC(C)=O)c(=O)nc1SCc1ccc(F)cc1`, in [2], the IC50 turned out to be 0.006 µM. The Papp in [5] is 0.833 ×10⁻⁶ cm/s.
Regarding `CCN(CC)CCN(Cc1ccc(-c2ccc(Cl)cc2)cc1)C(=O)Cn1c(SCc2ccc(F)cc2)nc(=O)c2c1CCC2`, the results for the half-inhibitory concentration (IC50) in series [1], in series [2] and in [4] were 25 µM, 0.0004 µM and 18 µM, respectively. The Papp in series [5] is 38.9 ×10⁻⁶ cm/s.
Consider `CCN(CC)CCN(Cc1ccc(-c2ccc(C(F)(F)F)cc2)cc1)C(=O)Cn1c(SCc2ccc(F)cc2)nc(=O)c(C)c1C`, for which the 50% inhibitory concentration (IC50) in series [1] turned out to be 24 µM; in [4] it was 22 µM. In series [5], the Papp was 8.33 ×10⁻⁶ cm/s.
Take `CCN(CC)CCN(Cc1ccc(-c2ccc(C(F)(F)F)cc2)cc1)C(=O)Cn1cc(Cl)c(=O)nc1SCc1ccc(F)cc1`: the half-maximal inhibitory concentration (IC50) was 83 µM in series [1], 0.003 µM in series [2] and 29 µM in series [4]. In addition, the Papp in [3] is 30.6 ×10⁻⁶ cm/s.
Regarding `CCN(CC)CCN(Cc1ccc(-c2ccc(C(F)(F)F)cc2)cc1)C(=O)Cn1cc(Cc2cnn(C)c2)c(=O)nc1SCc1ccc(F)cc1`, the bioavailability in [6] was determined as 2%.
Consider `CCN(CC)CCN(Cc1ccc(-c2ccc(C(F)(F)F)cc2)cc1)C(=O)Cn1cc(CO)c(=O)nc1SCc1ccc(F)cc1`, for which, in series [2], the IC50 was 0.0015 µM. Further, the Papp in series [3] was 0.556 ×10⁻⁶ cm/s.
For the compound `CCN(CC)CCN(Cc1ccc(-c2ccc(C(F)(F)F)cc2)cc1)C(=O)Cn1c(C)cc(=O)nc1SCc1ccc(F)cc1`, the half-inhibitory concentration (IC50) in series [1] is 47 µM; in [4] it was 22 µM. In addition, the Papp in series [5] is 13.9 ×10⁻⁶ cm/s.
Regarding `CCc1cn(CC(=O)N(CCN(CC)CC)Cc2ccc(-c3ccc(Cl)cc3)cc2)c(SCc2ccc(F)cc2)nc1=O`, the values for the half-inhibitory concentration (IC50) in series [1] and in [4] were 14 µM and 7 µM, respectively. The Papp in series [3] is 33.3 ×10⁻⁶ cm/s.
Regarding `CCCc1cn(CC(=O)N(CCN(CC)CC)Cc2ccc(-c3ccc(C(F)(F)F)cc3)cc2)c(SCc2ccc(F)cc2)nc1=O`, the IC50 is 22 µM in series [1], 0.0008 µM in series [2] and 5 µM in series [4]. For the same compound, in [3], the Papp was 36.1 ×10⁻⁶ cm/s.
For `CCN(CC)CCN(Cc1ccc(-c2ccc(C(F)(F)F)cc2)cc1)C(=O)Cn1cc([S+](C)[O-])c(=O)nc1SCc1ccc(F)cc1` (stereo unspecified), the concentration for half-maximal inhibition (IC50) in series [2] amounted to 0.0008 µM. In addition, the Papp in series [3] was 1.67 ×10⁻⁶ cm/s.
With `CCN(CC)CCN(Cc1ccc(-c2ccc(C(F)(F)F)cc2)cc1)C(=O)Cn1c(SCc2ccc(F)cc2)nc(=O)c2c1CCC2` [DARAPLADIB], the 50% inhibitory concentration (IC50) in series [1] is 26 µM; in [8], 4 µM; in [10], 4 µM. Further, the results for the bioavailability in [7], in series [9] and in [6] were ~21%, 28% and 11%, respectively. The Papp in [5] is 27.8 ×10⁻⁶ cm/s.

For orientation: IC50 means the midpoint of a concentration-inhibition curve. For orientation: bioavailability means dose-corrected exposure relative to a reference, in per cent. A lower bioavailability goes with little systemic uptake.
